# Laboratory results as given in patent publication US20150329821A1, “METHODS OF DIFFERENTIATING STEM CELLS INTO ONE OR MORE CELL LINEAGES” (AGENCY FOR SCIENCE, TECHNOLOGY AND RESEARCH, priority 2012, published 2015).
# System: hESC
# Assay: qPCR of DE vs. mesoderm emergence from primitive streak under signaling perturbations
# Assay type: cell-based, human
# Conditions: for downregulation of MESP1: neutralizing endogenous BMP on days 2-3, PS to DE, 2 hESC lines; for mesoderm formation from PS: inhibiting endogenous Wnt on days 2-3
# Procedure: RNA was harvested from adherent cells grown in individual wells of a 12-well plate by the addition of 350 μL of RLT Buffer for several minutes. RNA could be indefinitely frozen at −80° C. or could be directly extracted. RNA extraction was conducted with the RNeasy Micro Kit (Qiagen) generally as per the manufacturer's recommendations with an intermediate 1 hour on-column DNase digestion to eliminate residual genomic DNA, and RNA was finally eluted from the column in 30 μL H20. After assessment of total RNA concentration, generally 100-500 ng of total RNA was used for reverse transcription (Superscript Reverse Transcriptase, Invitrogen) as per the manufacturer's instructions. Finally, cDNA was diluted 1:30 in H2O and was used for qPCR in 384-well high-throughput format. For each individual qPCR reaction per′ well (10 μL), 5 μL of 2×SYBR Green Master Mix (Applied Biosystems) was used and combined with 0.4 μL of combined forward and reverse primer mix (at 10 μM of forward+reverse primers in the combined primer mix). qPCR was conducted for 40 cycles at Tm=60° C., and a dissociation curve was generated at the end of the reaction to ensure only one product was specifically amplified per primer pair. qPCR analysis was conducted by the ddCt method: for each cDNA sample, the expression of experimental genes was internally normalized to the expression of a human housekeeping gene (Pbgd) for that same cDNA sample, and afterwards, expression of experimental genes could be determined between different cDNA samples. For all differentiated populations, expression of experimental genes was compared to undifferentiated hESCs plated for the same experimental set to ensure that any perceived increase or decrease of gene expression was significant relative to the ab initio expression of that gene in undifferentiated hESCs. Thus, for all qPCR data both in matrices […] and histograms (FIG. 39-65) all gene expression is normalized such that the level of gene expression (e.g., for SOX17) in hESCs=1. For each experiment, at least two distinct wells per, condition were harvested, and for each well, 2 or 3 technical replicates were performed for each gene whose expression was analyzed by qPCR.
# To deduce the developmental signaling logic underlying cell-fate bifurcations, signaling-perturbation matrices (FIG. 1-23) were generated to visually represent qPCR data of developmental gene expression (rows) in response to various signaling-perturbations (columns). Signaling-perturbation matrices were generated using GenePattern's HeatMapViewer module (http://genepattern.broadinstitute.org), using as input data matrices of signaling-perturbation qPCR responses that were normalized to levels of developmental gene expression in undifferentiated hESC as described above. In HeatMapViewer, gene expression values are linearly transformed into colors (as indicated by the color legend below each matrix) in which no color represents low gene expression, stronger color represents higher gene expression and the strongest shade of color is equivalent to the highest level of the gene that was expressed in all signaling-perturbations tested in that matrix.
Molecule,downregulation of MESP1 [fold],mesoderm formation from PS
"Cl.c1ccc2c(-c3cnn4cc(-c5ccc(N6CCNCC6)cc5)cnc34)ccnc2c1 [DM3189/LDN-193189, 4-(6-(4-(piperazin-1-yl)phenyl)pyrazolo[1,5-a]pyrimidin-3-yl)quinoline hydrochloride]",~3000,
"Cc1ccc2nc(NC(=O)CSc3nc4c(c(=O)n3-c3ccccc3)SCC4)sc2c1 [IWP2, N-(6-Methyl-2-benzothiazolyl)-2-[(3,4,6,7-tetrahydro-4-oxo-3-phenylthieno[3,2-d]pyrimidin-2-yl)thio]-acetamide]",,blocked mesoderm formation
"O=c1[nH]c(-c2ccc(C(F)(F)F)cc2)nc2c1CSCC2 [XAV939, 3,5,7,8-Tetrahydro-2-[4-(trifluoromethyl)phenyl]-4H-thiopyrano[4,3-d]pyrimidin-4-one]",,blocked mesoderm formation
"Dkk1: inhibitor of Wnt signaling (protein, UniProt O94907 32-266, looked up) Dickkopf-related protein 1: TLNSVLNSNAIKNLPPPLGGAAGHPGSAVSAAPGILYPGGNKYQTIDNYQPYPCAEDEECGTDEYCASPTRGGDAGVQICLACRKRRKRCMRHAMCCPGNYCKNGICVSSDQNHFRGEIEETITESFGNDHSTLDGYSRRTTLSSKMYHTKGQEGSVCLRSSDCASGLCCARHFWSKICKPVLKEGQVCTKHRRKGSHGLEIFQRCYCGEGLSCRIQKDHHQASNSSRLHTCQRH",,blocked mesoderm formation
"noggin: inhibitor of BMP signaling (protein, UniProt Q13253 28-232, looked up) Noggin: QHYLHIRPAPSDNLPLVDLIEHPDPIFDPKEKDLNETLLRSLLGGHYDPGFMATSPPEDRPGGGGGAAGGAEDLAELDQLLRQRPSGAMPSEIKGLEFSEGLAQGKKQRLSKKLRRKLQMWLWSQTFCPVLYAWNDLGSRFWPRYVKVGSCFSKRSCSVPEGMVCKPSKSVHLTVLRWRCQRRGGQRCGWIPIQYPIISECKCSC",~3000,
